Measurements from ChEMBL document CHEMBL5257100, “Discovery and development of benzene sulfonamide derivatives as anti-hepatic fibrosis agents” (Bioorg Med Chem Lett, 2023).
Active and inactive are the calls of the source. No cut-off for these calls is given here.

How the values were obtained:
[1] = tested on: LX-2; experiment: Anti-hepatic fibrosis activity in human LX2 cells assessed as inhibition of TGF-beta1 induced intrinsic TGF-beta1 mRNA expression at 3 micromol/L incubated for 24 hrs by qPCR analysis; type: functional, cell-based; conditions: dose 3.0 µmol/L
[2] = tested on: LX-2; experiment: Anti-hepatic fibrosis activity in human LX2 cells assessed as inhibition of TGFbeta1-induced FN protein expression at 1 uM incubated for 24 hrs by western blot analysis; type: functional, cell-based
[3] = tested on: LX-2; experiment: Anti-hepatic fibrosis activity in human LX2 cells assessed as inhibition of TGFbeta1-induced COL1A1 protein expression at 1 uM incubated for 24 hrs by western blot analysis; type: functional, cell-based
[4] = Cytotoxicity against human LX2 cells assessed as mortality rate at 1 to 30 uM incubated for 24 hrs by Sulfonyl Rhodamine B assay; type: toxicity, cell-based; conditions: lx-2, 24 h, dose 1-30 µM
[5] = tested on: LX-2; experiment: Anti-hepatic fibrosis activity in human LX2 cells assessed as inhibition of TGFbeta1-induced alpha-SMA protein expression at 1 uM incubated for 24 hrs by western blot analysis; type: functional, cell-based
[6] = tested on: LX-2; experiment: Anti-hepatic fibrosis activity in human LX2 cells assessed as inhibition of TGF-beta1 induced COL1A1 mRNA expression at 3 micromol/L incubated for 24 hrs by qPCR analysis; type: functional, cell-based; conditions: dose 3.0 µmol/L
[7] = Anti-hepatic fibrosis activity in human LX2 cells assessed as inhibition of COL1A1 promoter activity at 25 micromol/L by luciferase reporter assay relative to control; type: functional; conditions: LX-2, dose 25 µmol/L
[8] = tested on: LX-2; experiment: Anti-hepatic fibrosis activity in human LX2 cells assessed as inhibition of TGFbeta1-induced FN protein expression at 3 uM incubated for 24 hrs by western blot analysis; type: functional, cell-based
[9] = tested on: LX-2; experiment: Anti-hepatic fibrosis activity in human LX2 cells assessed as inhibition of TGFbeta1-induced TIMP-1 protein expression at 3 uM incubated for 24 hrs by western blot analysis; type: functional, cell-based
[10] = tested on: LX-2; experiment: Anti-hepatic fibrosis activity in human LX2 cells assessed as inhibition of TGFbeta1-induced TIMP-1 protein expression at 1 uM incubated for 24 hrs by western blot analysis; type: functional, cell-based
[11] = tested on: LX-2; experiment: Anti-hepatic fibrosis activity in human LX2 cells assessed as inhibition of TGFbeta1-induced alpha-SMA protein expression at 3 uM incubated for 24 hrs by western blot analysis; type: functional, cell-based
[12] = Inhibition of JAK1/STAT1/STAT3 signaling pathway in human LX2 cells assessed as decrease in TGF-beta induced STAT1 phosphorylation level at 1 uM incubated for 24 hrs by Western blot analysis; type: cell-based
[13] = Inhibition of JAK1/STAT1/STAT3 signaling pathway in human LX2 cells assessed as decrease in TGF-beta induced JAK1 phosphorylation level at 1 uM incubated for 24 hrs by Western blot analysis; type: cell-based
[14] = tested on: LX-2; experiment: Anti-hepatic fibrosis activity in human LX2 cells assessed as inhibition of TGF-beta1 induced MMP-2 mRNA expression at 3 micromol/L incubated for 24 hrs by qPCR analysis; type: functional, cell-based; conditions: dose 3.0 µmol/L
[15] = Inhibition of JAK1/STAT1/STAT3 signaling pathway in human LX2 cells assessed as decrease in TGF-beta induced STAT3 phosphorylation level at 1 uM incubated for 24 hrs by Western blot analysis; type: cell-based
[16] = tested on: AML12; experiment: Cytotoxicity against mouse AML12 cells assessed as mortality rate at 1 to 30 uM incubated for 24 hrs by Sulfonyl Rhodamine B assay; type: toxicity, cell-based; conditions: aml12, 24 h, dose 1-30 µM
[17] = tested on: LX-2; experiment: Anti-hepatic fibrosis activity in human LX2 cells assessed as inhibition of TGFbeta1-induced COL1A1 protein expression at 3 uM incubated for 24 hrs by western blot analysis; type: functional, cell-based

SMILES	inhibition [1]	inhibition [2]	inhibition [3]	Activity [4]	inhibition [5]	inhibition [6]	inhibition at 25 µM [7]	inhibition [8]	inhibition [9]	inhibition [10]	inhibition [11]	inhibition [12]	inhibition [13]	inhibition [14]	inhibition [15]	Activity [16]	inhibition [17]
O=C(Nc1ccccc1NS(=O)(=O)c1ccc([N+](=O)[O-])cc1)c1cc(Cl)c(Cl)c(Cl)c1	Active	Active	Active	Non-Toxic	Active	Active	54.8%	Active	Active	Active	Active	Active	Active	Active	Active	Non-Toxic	Active
O=C(Nc1ccccc1NS(=O)(=O)c1cccc([N+](=O)[O-])c1)c1cc(Cl)c(Cl)c(Cl)c1	Active	Active	Active	Toxic	Active	Active	61.7%	Active	Active	Active	Active	Active	Active	Active	Active	Non-Toxic	Active
